The source of these data is ChEMBL document CHEMBL1123809, “Amplification of bleomycin-mediated degradation of DNA” (J Med Chem, 1987).

This assay concerns Nucleic Acid. As to the kind of experiment: Activity against DNA binding in calf thymus was determined. Type of assay: nucleic-acid assay. Particulars: Bos taurus.
Molecule `CN(C)CCSc1nccc(-c2cccs2)n1` yielded a K of 18700 M⁻¹.
Regarding `CC[n+]1c(-c2ccccc2)c2cc(N)ccc2c2ccc(N)cc21`, the K turned out to be 900000 M⁻¹.
`CN(C)CCCN1C(=O)c2ccc3c4c(ccc(c24)C1=O)C(=O)N(CCCN(C)C)C3=O` gave a K above 1e+06 M⁻¹.
The value for `CN(C)CCNc1nccc(-c2cccs2)n1` was 4400 M⁻¹.
The value for `CN(C)CCSc1nccc(-c2ccc(-c3ccnc(SCCN(C)C)n3)s2)n1` was 1.3e+07 M⁻¹.
